“And” between values parts separate entries of the source, which are not always exact repeats. Equal entries are not always repeated.
What was measured:
SARS-CoV-2 3CL protease [1] = target: T1, SARS-CoV-2 3CL protease (Severe acute respiratory syndrome coronavirus 2, UniProt P0DTD1); assay: biochemical; conditions: for Normalized SARS-CoV-2 3CL protease activity: 0.2 µM protease with 50 µM tested compound; for Normalized SARS-CoV-2 3CL protease activity / % SARS-CoV-2 3CL activity: replicates; for % SARS-CoV-2 3CL activity / IC50: 20 nM protease; for IC50: read-out: SARS-CoV-2 3CLpro IC50
SARS-CoV-2 3CL protease [2] = target: T1, SARS-CoV-2 3CL protease; assay: cell-based

Compound	Normalized SARS-CoV-2 3CL protease activity (SARS-CoV-2 3CL protease [1])	Absorbance (crystal violet), SARS-CoV-2 3CLpro (SARS-CoV-2 3CL protease [2])	% SARS-CoV-2 3CL activity (SARS-CoV-2 3CL protease [1]; log10[nM] 0.19382)	% SARS-CoV-2 3CL activity (SARS-CoV-2 3CL protease [1]; log10[nM] 0.49485)	% SARS-CoV-2 3CL activity (SARS-CoV-2 3CL protease [1]; log10[nM] 0.79588)	% SARS-CoV-2 3CL activity (SARS-CoV-2 3CL protease [1]; log10[nM] 1.09691)	% SARS-CoV-2 3CL activity (SARS-CoV-2 3CL protease [1]; log10[nM] 1.39794)	% SARS-CoV-2 3CL activity (SARS-CoV-2 3CL protease [1]; log10[nM] 1.69897)	% SARS-CoV-2 3CL activity (SARS-CoV-2 3CL protease [1]; log10[nM] 2)	% SARS-CoV-2 3CL activity (SARS-CoV-2 3CL protease [1]; log10[nM] 2.30103)	% SARS-CoV-2 3CL activity (SARS-CoV-2 3CL protease [1]; log10[nM] 2.60206)	% SARS-CoV-2 3CL activity (SARS-CoV-2 3CL protease [1]; log10[nM] 2.90309) [%]	% SARS-CoV-2 3CL activity (SARS-CoV-2 3CL protease [1]; log10[nM] -0.10721)	% SARS-CoV-2 3CL activity (SARS-CoV-2 3CL protease [1]; log10[nM] -0.40824) [%]	IC50 (SARS-CoV-2 3CL protease [1]) [nM]
Cn1ncc(C(=O)Oc2cncc(Cl)c2)c1-n1cccc1 [Z26]	0.2302 and 0.2702 and 0.2695	0.1558 and 0.1505													
CC(=O)Nc1ccc(C(=O)Oc2cncc(Cl)c2)cc1 [Z32]	0.07213 and 0.1423 and 0.1862	0.1483 and 0.1499													
Cc1ncc(C(=O)Oc2cncc(Br)c2)s1 [Z43]	0.007869 and 0.001311 and 0.005246	0.1361 and 0.1268	81.5961% and 71.2676%	59.9348% and 65.0704%	59.9348% and 45.6338%	45.6026% and 45.2113%	33.0619% and 25.9155%	9.772% and 20%	-2.443% and 0.9859%	-12.7036% and 7.042%	-11.2378% and 5.775%	0	77.6873% and 77.6056%	100	14
N#CCc1cccc(C(=O)Oc2cncc(Cl)c2)c1 [Z50]	0.05574 and 0.08721 and 0.4348	0.1475 and 0.1394													
O=C(Oc1cncc(Br)c1)c1cc2c([nH]c1=O)CCCC2 [Z61]	0.4525 and 0.1738 and 0.3423	0.1155 and 0.1264													
CCn1nc(C)c(C(=O)Oc2cncc(Cl)c2)c1Cl [Z65]	0.223 and 0.2216 and 0.2302	0.1475 and 0.1384													
Cc1ncsc1C(=O)Oc1cncc(Cl)c1 [Z91]	0.02131 and 0.02295 and 0.01967	0.1428 and 0.134	84.3886% and 89.3518%	71.2882% and 83.5648%	67.1397% and 68.9815%	60.4804% and 65.625%	57.3144% and 59.9537%	31.5502% and 53.125%	18.6681% and 32.7546%	6.9869% and 23.0324%	2.62% and 4.745%	0	87.0087% and 88.8889%	100	31
CN(C)S(=O)(=O)c1ccc(C(=O)Oc2cc(Cl)c[nH]c2=O)cc1 [Z97]	0.9508 and 0.9056 and 0.9639	0.1516 and 0.1477													

From paper PMC8989888, “Development of optimized drug-like small molecule inhibitors of the SARS-CoV-2 3CL protease for treatment of COVID-19” (Nature Communications, 2022)
